Reference: patent US20220170029A1, “APPLICATION OF NAT1 GENE AS SCREENING MARKER IN GENETIC TRANSFORMATION OF OOMYCETE” (priority 2021, published 2022)

How the values were obtained:
Phytophthora sojae = conditions: oomycete carrying encoding gene of mutated protein; cited from earlier work
[1] = tested on: Avh109 gene complemented transformants of Phytophthora sojae (Nat1 gene as selection marker); assay: Growth on nourseothricin-containing V8 culture medium, candidate transformants carrying the Nat1 gene; type: cell-based; conditions: 50 μg/mL nourseothricin; 15 candidate transformants with Nat1 gene
Procedure: (S2) After the centrifugation, the supernatant was discarded. Then 5 mL of PM culture medium were added into the centrifuge tube to resuspend the regenerated hypha. After that, 5 mL of 30 μg/mL nourseothricin-containing PM culture medium were added into the centrifuge tube, and mixed to be poured into a petri dish. Then the petri dish was subjected to drying, and culturing at 25° C. in dark for 3-4 days to perform primary screening.
(S3) The growth condition of hyphae on the surface of the petri dish was observed. 10 mL of 50 μg/mL nourseothricin-containing V8 culture medium were added into the petri dish, and cultured at 25° C. in the dark for 3-4 days to perform secondary screening.
(S4) The growth condition of hyphae on the surface of the petri dish was observed. The regenerated strain was transferred to the 50 μg/mL nourseothricin-containing V8 culture medium to perform tertiary screening. After three screenings in the presence of nourseothricin, 15 transformants were obtained, which were preliminarily considered to be complemented transformants (candidate transformants) for subsequent identification.
(§1) The 15 candidate transformants screened in Example 1 were transformed to the 50 μg/mL nourseothricin-containing V8 culture medium to observe the growth condition of the 15 candidate transformants, and the wide-type Phytophthora sojae is used as a control strain.

[2] = tested on: wide-type Phytophthora sojae; assay: Growth on nourseothricin-containing V8 culture medium, control strain; type: cell-based; conditions: 50 μg/mL nourseothricin, grows on V8 medium without nourseothricin
Procedure: as §1

In the case of Cc1cc(C(F)(F)F)nn1CC(=O)N1CCC(c2nc(C3=NOC(c4c(F)cccc4F)C3)cs2)CC1 (stereo not drawn) [oxathiapiprolin], the “resistance to oxathiapiprolin induced in the oomycete by the mutated protein” value (Phytophthora sojae) is listed as “more than 500 times”.

In the case of nourseothricin, the “growth condition on nourseothricin-containing V8 medium” value [1] was “able to grow normally” and the “growth condition on nourseothricin-containing V8 medium” value [2] was “not able to grow”.
